# Data: patent EP3335720A1, “C-DI-GMP BINDING PEPTIDES” (Universität Basel, priority 2016, dated 2018)
# pKd: −log10 of the molar value. Like-named read-outs stand apart in the source and are kept apart here. Peptide text beside a SMILES is read from it. * marks the point of attachment. FITC = O=C1OC2(c3ccc(O)cc3Oc3cc(O)ccc32)c2ccc(NC(=S)*)cc21
# Key:
# epithelial HeLa cells = experiment: Cytotoxicity assays: resazurin reduction assay and LDH release assay; type: cell-based, human; conditions: 24 hours, Figures 11 and 12
# Experimental: The cytotoxicity of the peptides was determined with a Resazurin cell viability assay (Sigma #R7017). In a 96-well plate (Corning #3904), monolayers of epithelial HeLa ATCC CCL-2 cells were grown in 100 µl growth medium (DMEM (Sigma #D5796) containing 10% FCS). Afterwards, the medium was removed and either replaced by DMEM/10% FCS containing 2-fold serial diluted peptides with a highest concentration of 256 mg/L. After 24 hours, the medium was removed and replaced by 100 µl fresh growth medium. 1% Triton X-100 (Sigma) was used as positive lysis control. 20 µl of resazurin solution (0.1 mg/ml) was added. After 2 hours, the fluorescence signal was recorded using a microplate reader (Synergy H4 BioTek) with an excitation wavelength of 560 nm and emission wavelength 590 nm.
# Cells were prepared and treated with peptides as described for the resazurin reduction assay. 24 hours after peptide treatment, control wells were treated with 1% Triton X-100 (Sigma) as lysis control. LDH release was measured using the LDH Cytotoxicity Detection Kit (Clontech). Absorbance was measured at 490 nm using a microplate reader (Synergy H4 BioTek). The percentage of cell death was calculated as follows: (LDH peptide treated - LDH untreated)/(LDH total lysis - LDH untreated)* 100.
# [1] = test system: P. aeruginosa PAO1 biofilms; type: cell-based
# Experimental: The parameter "MBIC50", as used herein, is defined as the peptide concentration leading to 50% biofilm reduction in a standard biofilm assay. Preferably, the medium used for the assay is Mueller-Hinton broth (MHB), since most bacteria can be grown in this medium, and it allows a reliable comparison of MBIC values. MBIC50 values in accordance with the invention are obtained by growing P. aeruginosa at 37°C in presence of different concentrations of peptides, without agitation, for 24 h, followed by staining the adherent biofilm, dissolving the biofilm and measuring the OD600.
# The standard biofilm assay (O'Toole G.A., Pratt L.A., Watnick P.I., Newman D.K., Weaver V.B., and Kolter R. 1999. Genetic approaches to study of biofilms. Methods Enzymol. 310: 91-109) was followed with minor modification, i.e. Mueller-Hinton II broth (MHB) (Becton Dickinson #212322) was used instead of lysogenic broth (LB) or minimal medium. MHB is preferred by The European Committee on Antimicrobial Susceptibility Testing (EUCAST) as the medium for MIC determination because most bacteria can be grown in this medium, which allows a more reliable MIC values comparisons. The MBIC50 was defined as the peptide concentration leading to 50% biofilm reduction (de la Fuente-Nunez C., Korolik V., Bains M., Nguyen U., Breidenstein E. B. M., Horsman S., Lewenza S., Burrows L., Hancock, R. E. W. (2012) Inhibition of bacterial biofilm formation and swarming motility by a small synthetic cationic peptide. 56: 2696-2704). MBIC50 values were obtained by growing P. aeruginosa (PAO1) biofilms in 96-well plates (Falcon #353072) in presence of peptides at 37°C without agitation in MHB. After 24 hours, bacterial growth was evaluated by measuring the OD600 in a microtiter plate reader (EL800, BioTek). Afterwards, the plates were rinsed three times with demineralized water to remove non-attached bacteria. The adherent biofilms were stained with 0.1% Crystal Violet and subsequently dissolved in 20% acetic acid. Dissolved biofilms were quantified by measuring the OD600 in a microtiter plate reader.
# P. aeruginosa (PAO1) = experiment: P. aeruginosa growth in presence of peptides (growth curves); type: cell-based; conditions: 64 mg/L peptides, 37°C, MHB; Figure 10
# Experimental: Growth curves were obtained by growing P. aeruginosa (PAO1) in 96-well plates (Falcon #353072) in presence of 64 mg/L peptides at 37°C with agitation in Mueller-Hinton II Broth (MHB) (BD #212322) using an Epoch 2 microplate reader (BioTek).
# c-di-GMP = experiment: Binding affinity of peptides to c-di-GMP by isothermal titration calorimetry (ITC); conditions: for Dissociation constant: pH 8.0
# Experimental: Binding affinities of peptides to c-di-GMP were measured using isothermal titration calorimetry (ITC) on a VP-ITC MicroCalorimeter (MicroCal, Northampton, MA, USA). Peptides, c-di-GMP and buffer (50 mM Tris-HCl, pH 8.0, 100 mM NaCl) were degassed for 15 min prior to filling into sample cell and syringe. All experiments were carried out at a temperature of 15°C. The data were evaluated using ITC Data Analysis in ORIGIN provided by the manufacturer.
# in vitro [2] = type: in vitro ADME, P. aeruginosa PAO1; conditions: cells or culture medium
# Experimental: (§1) P. aeruginosa PAO1 lysate, which was used to test peptide stability, was prepared by the following procedure. 500 ml of cells grown overnight at 37°C were harvested by centrifugation at 5000 rpm, 10 min at 4°C. Pellets were resuspended in 60 ml PBS (Gibco) and centrifuged at 5000 rpm, 10 min at 4°C. Pellets were resuspended again in 20 ml PBS and centrifuged at 5000 rpm, 10 min at 4°C. Cells were disrupted using high-pressure cell disrupter (Stansted Fluid Power). Cell lysate was separated from cell debris by centrifugation at 14,000 rpm for 20 min at 4°C. Lysate was diluted 10 fold to yield a protein content of about 1 mg/ml. The lysate was used for all experiments described below.
# The stability of peptides was tested against P. aeruginosa PAO1 cell lysate. […] Samples were analyzed on 10-20% Mini-PROTEAN tris-tricine gels (BIO-RAD #4563115) according to manufacturer's recommended protocol. Band intensities were quantified using the program ImageJ (Schneider, C. A., Rasband, W. S. and Eliceiri, K. W. 2012. NIH Image to ImageJ: 25 years of image analysis. Nature methods. 9: 671-675).
# The protocol mentioned above was also used to compare stability of peptides in the presence of c-di-GMP. […] 14 µl samples were removed at 2, 4, 6 and 8 hours after incubation at 37°C and analyzed on tris-tricine gels as described above.
# in vitro [3] = type: in vitro ADME, P. aeruginosa PAO1
# Experimental: as §1
# The stability of peptides was tested against P. aeruginosa PAO1 cell lysate. About 1 to 3 µg of peptides were incubated with 5 µl P. aeruginosa PAO1 cell lysate or PBS (untreated controls) at 37°C. After 2 hours, 6 µl of 2x SDS sample buffer was added to the samples and heated to 95°C for 5 min. Samples were analyzed on 10-20% Mini-PROTEAN tris-tricine gels (BIO-RAD #4563115) according to manufacturer's recommended protocol. Band intensities were quantified using the program ImageJ (Schneider, C. A., Rasband, W. S. and Eliceiri, K. W. 2012. NIH Image to ImageJ: 25 years of image analysis. Nature methods. 9: 671-675).
# [4] = Table 3, peptides with amino acid substitution, 15°C
compound,measurement,setting,value
"C[C@H](NC(=O)[C@H](CO)NC(=O)[C@H](CC(N)=O)NC(=O)[C@H](Cc1ccccc1)NC(=O)[C@H](CCCNC(=N)N)NC(=O)[C@H](CCCNC(=N)N)NC(=O)[C@H](CCCNC(=N)N)NC(=O)[C@H](CC(=O)O)NC(=S)Nc1ccc2c(c1)C(=O)OC21c2ccc(O)cc2Oc2cc(O)ccc21)C(=O)N[C@@H](CC(=O)O)C(=O)N[C@@H](Cc1ccc(O)cc1)C(=O)N[C@@H](CCCCN)C(=O)NCC(=O)N1CCC[C@H]1C(=O)N[C@@H](CCCNC(=N)N)C(=O)N[C@@H](CCCNC(=N)N)C(=O)N[C@@H](CCCNC(=N)N)C(=O)N[C@@H](CCCCN)C(=O)N[C@@H](C)C(=O)N[C@@H](CC(=O)O)C(N)=O [SEQ ID NO: 43, FITC-DRRRFNSADYKGPRRRKAD-NH2] ({FITC}-DRRRFNSADYKGPRRRKAD-NH2)",concentration up to which no toxic effect was shown,epithelial HeLa cells,≤ 64 µg/mL
C[C@H](NC(=O)[C@H](CO)NC(=O)[C@H](CC(N)=O)NC(=O)[C@H](Cc1ccccc1)NC(=O)[C@H](CCCNC(=N)N)NC(=O)[C@H](CCCNC(=N)N)NC(=O)[C@H](CCCNC(=N)N)NC(=O)[C@H](CC(=O)O)NC(=O)[C@H](CCCNC(=N)N)NC(=O)[C@H](CCCNC(=N)N)NC(=O)[C@H](CCCNC(=N)N)NC(=O)[C@H](CCCNC(=N)N)NC(=O)[C@H](CCCNC(=N)N)NC(=O)[C@H](CCCNC(=N)N)NC(=O)[C@H](CCCNC(=N)N)NC(=O)[C@H](CCCNC(=N)N)NC(=S)Nc1ccc2c(c1)C(=O)OC21c2ccc(O)cc2Oc2cc(O)ccc21)C(=O)N[C@@H](CC(=O)O)C(=O)N[C@@H](Cc1ccc(O)cc1)C(=O)N[C@@H](CCCCN)C(=O)NCC(=O)N1CCC[C@H]1C(=O)N[C@@H](CCCNC(=N)N)C(=O)N[C@@H](CCCNC(=N)N)C(=O)N[C@@H](CCCNC(=N)N)C(=O)N[C@@H](CCCCN)C(=O)N[C@@H](C)C(=O)N[C@@H](CC(=O)O)C(N)=O [SEQ ID NO: 48] ({FITC}-RRRRRRRRDRRRFNSADYKGPRRRKAD-NH2),concentration up to which no toxic effect was shown,epithelial HeLa cells,≤ 32 µg/mL
C[C@H](NC(=O)[C@H](CO)NC(=O)[C@H](CC(N)=O)NC(=O)[C@H](Cc1ccccc1)NC(=O)[C@H](CCCNC(=N)N)NC(=O)[C@H](CCCNC(=N)N)NC(=O)[C@H](CCCNC(=N)N)NC(=O)CNC(=O)[C@H](CC(=O)O)NC(=O)[C@H](CCCNC(=N)N)NC(=O)[C@H](CCCNC(=N)N)NC(=O)[C@H](CCCNC(=N)N)NC(=O)[C@H](CCC(N)=O)NC(=O)[C@H](CCCNC(=N)N)NC(=O)[C@H](CCCNC(=N)N)NC(=O)[C@H](CCCCN)NC(=O)[C@H](CCCCN)NC(=O)[C@H](CCCNC(=N)N)NC(=O)CNC(=O)[C@H](Cc1ccc(O)cc1)NC(=S)Nc1ccc2c(c1)C(=O)OC21c2ccc(O)cc2Oc2cc(O)ccc21)C(=O)N[C@@H](CC(=O)O)C(=O)N[C@@H](Cc1ccc(O)cc1)C(=O)N[C@@H](CCCCN)C(=O)NCC(=O)N1CCC[C@H]1C(=O)N[C@@H](CCCNC(=N)N)C(=O)N[C@@H](CCCNC(=N)N)C(=O)N[C@@H](CCCNC(=N)N)C(=O)N[C@@H](CCCCN)C(=O)N[C@@H](C)C(=O)N[C@@H](CC(=O)O)C(N)=O [SEQ ID NO: 51] ({FITC}-YGRKKRRQRRRDGRRRFNSADYKGPRRRKAD-NH2),concentration up to which no toxic effect was shown,epithelial HeLa cells,≤ 64 µg/mL
same,MBIC50,"[1]; peptide concentration leading to 50% biofilm reduction, MHB, 37°C, 24 hours, without agitation",below 0.25 mg/L
"Ac-DRRRFNSADYKGPRRAKAD-NH2 [SEQ ID NO: 28, AC-DRRRFNSADYKGPRRAKAD-NH2]",effect on bacterial growth,P. aeruginosa (PAO1),do not show an effect on bacterial growth
same,Dissociation constant,c-di-GMP; [4],no binding detected
same,"binding affinity to c-di-GMP, in words",c-di-GMP; compared to the core sequence / peptide of SEQ ID NO: 12,significantly reduced binding affinities
Ac-DRRRFNSADYKGPRRAKAD-NH2 [compound 28],MBIC50,"[1]; PAO1, 24 h",1 to 2 mg/L
same,remaining at 2 h,in vitro [2],23%
same,Remaining peptide after 2 hours,in vitro [3],11%
same,Dissociation constant,c-di-GMP; [4],no binding
"Ac-DRRRFNSADYKGPRRRKAD-NH2 [SEQ ID NO: 12, AC-DRRRFNSADYKGPRRRKAD-NH2]",effect on bacterial growth,P. aeruginosa (PAO1),do not show an effect on bacterial growth
same,concentration up to which no toxic effect was shown,epithelial HeLa cells,≤ 64 µg/mL
same,MBIC50 compared to the MBIC50 of the peptide of SEQ ID NO: 28,[1]; lower,about 4 fold
same,remaining at 2 h,in vitro [2],32%
same,Remaining peptide after 2 hours,in vitro [3],11%
same,pKd,"c-di-GMP; Table 3, peptides with amino acid substitution, 15°C, pH 8.0, read-out: Dissociation constant",6.77
Ac-DRRRFNSADYKGPRRRKAD-NH2 [compound 12],MBIC50,"[1]; PAO1, 24 h",0.25 to 0.5 mg/L
